As usually defined, the inhibition is the share of the control response that was lost under treatment. One may read the Ki as the dissociation constant of the complex between target and ligand, obtained from inhibition or displacement. In general, % Inhibition refers to the share of the control response that was lost under treatment.

This is an account of results in patent US6951881B2, “(1-substituted-indol-3-yl) alkylidenehydrazinecarboximidamide derivatives as 5-hydroxytryptamine-6 ligands” (Wyeth, priority 2002, dated 2005).

The target of one test is T1, human cloned 5-HT6 receptors (Homo sapiens, UniProt P50406).
T1 construct: expressed in transfected cells; host or cells: HeLa cells
T1 sequence (P50406 whole entry): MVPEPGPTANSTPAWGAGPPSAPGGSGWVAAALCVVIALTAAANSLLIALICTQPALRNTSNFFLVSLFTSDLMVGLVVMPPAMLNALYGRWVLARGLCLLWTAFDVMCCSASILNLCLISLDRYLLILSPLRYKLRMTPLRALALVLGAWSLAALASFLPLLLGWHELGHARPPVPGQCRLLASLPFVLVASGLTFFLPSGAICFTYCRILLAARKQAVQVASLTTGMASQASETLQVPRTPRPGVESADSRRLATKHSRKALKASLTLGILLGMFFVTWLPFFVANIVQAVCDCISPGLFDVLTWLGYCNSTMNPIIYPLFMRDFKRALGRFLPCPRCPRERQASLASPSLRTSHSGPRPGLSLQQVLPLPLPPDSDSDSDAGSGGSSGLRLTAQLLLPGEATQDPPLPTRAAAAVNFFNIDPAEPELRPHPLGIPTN
It is filed as binding.
Conditions: not given
Compound `C/C(=N\NC(=N)N)c1c(-c2ccc(Cl)cc2Cl)[nH]c2ccc(Cl)cc12` [Example 127, 2-{[5-Chloro-2-(2,4-dichlorophenyl)-1H-indol-3-yl]ethylidene}hydrazinecarboximidamide] yielded an inhibition at 0.1 µM of 50.6%.

Still in this test, the particulars now being: [3H]-LSD 3.0 nM, Hela cell membranes; read-out: 5-HT6 Binding Ki.
With `COc1ccc(S(=O)(=O)Nc2ccc3c(c2)c(C(C)=NNC(=N)N)cn3C)cc1` [Example 20], the Ki was 3 nM.

As to `CC(=NNC(=N)N)c1c(-c2ccc(Cl)cc2)[nH]c2ccccc12` [Example 64, 2-{1-[2-(4-chloro-phenyl)-1H-indol-3-yl]-ethylidene}hydrazinecarboximidamide], the Ki was found to be 17 nM.

`CC(=NNC(=N)N)c1cn(C)c2ccc(NS(=O)(=O)c3ccccc3Br)cc12` [Example 25]: the Ki worked out at 1 nM.

Take `CC(=NNC(=N)N)c1cn(C)c2ccc(NS(=O)(=O)c3ccc(N)cc3)cc12` [Example 10]: the Ki was found to be 4 nM.

Regarding `CN(N=Cc1c(-c2ccccc2)n(C)c2ccccc12)C1=NCCN1` [Example 90, N-(4,5-dihydro-1H-imidazol-2-yl)-N′-[(1-methyl-2-phenyl-1H-indol-3-yl)-methylene]-N-methylhydrazine], the Ki came out at 11 nM.

With `N=C(N)NN=Cc1c(-c2ccc3ccccc3c2)[nH]c2ccccc12` [Example 51, 2-{[2-(naphthalen-2-yl)-1H-indol-3-yl]methylene}hydrazinecarboximidamide], the Ki turned out to be 109 nM.

The test is the same for the next values; noted with them: test compound dose 100 nM; displacement of [3H]-LSD.
For “2-{[2-(3-thienyl)-1H-indol-3-yl]-ethylidene}hydrazinecarboximidamide [Example 139]”, the “% Inhibition” value was determined as 60.1%.

Staying with this test, now noted: test compound dose 100 nM; displacement of [3H]-LSD; read-out: % Inhibition.
As to `N=C(N)NN=C1CC(c2ccccc2)Cc2[nH]c3ccc(Cl)cc3c21` (stereo not drawn) [Example 172, 2-(6-chloro-2-phenyl-1,2,3,9-tetrahydro-4H-carbazol-4-ylidene)hydrazinecarboximidamide], the inhibition at 0.1 µM was 24.6%.

On to `Cc1ccc2[nH]c3c(c2c1)C(=NN(C)C1=NCCN1)CC(C)(C)C3` [Example 174, 2,2,6-trimethyl-1,2,3,9-tetrahydro-4H-carbazol-4-one 4,5-dihydro-1H-imidazol-2-yl(methyl)-hydrazone], for which the inhibition at 0.1 µM worked out at 25.5%.

The test is the same for the next values; noted with them: test compound dose 1000 nM; displacement of [3H]-LSD.
For the compound `N=C(N)NN=Cc1c(-c2ccc(Cl)cc2)n(Cc2ccccc2)c2ccccc12` [Example 94, 2-{[1-benzyl-2-(4-chloro-phenyl)-1H-indol-3-yl]-methylene}hydrazinecarboximidamide], the inhibition at 1 µM stood at 19.7%.

The compound `COc1ccc(S(=O)(=O)Nc2ccc3c(c2)c(C(C)=NNC(=N)N)cn3C)cc1` [Example 20] yielded an inhibition at 1 µM of 99%.

The compound `CN(N=C(CCc1ccccc1)c1c(-c2ccc(Cl)cc2)[nH]c2ccccc12)C1=NCCN1` [Example 70, N′-{1-[2-(4-chloro-phenyl)-1H-indol-3-yl]-3-phenyl-propylidene}-N-(4,5-dihydro-1H-imidazol-2-yl)-N-methylhydrazine] gave an inhibition at 1 µM of 33.9%.

Turning to `N=C(N)NN=Cc1c(-c2ccc(Cl)cc2)n(Cc2ccccc2Cl)c2ccccc12` [Example 96, 2-{[1-(2-chloro-benzyl)-2-(4-chloro-phenyl)-1H-indol-3-yl]-methylene}hydrazinecarboximidamide], the inhibition at 1 µM came to 15.6%.

Compound `Cc1nc(Cn2c(-c3ccc(Cl)cc3)c(C=CNNC3=NCCN3)c3ccccc32)cs1` [Example 102, {[2-(4-chlorophenyl)-1((2-methyl-thiazol-4-yl)methyl)-1H-indol-3-yl]methylene}-N′-(4,5-dihydro-1H-imidazol-2-yl)-N-methylhydrazine] gave an inhibition at 1 µM of 62.7%.

Compound `CC(=NNC(=N)N)c1c(-c2ccccc2)n(-c2ccccc2)c2ccccc12` [Example 87, 2-[1-(1,2-diphenyl-1H-indol-3-yl)-ethylidene]hydrazinecarboximidamide] yielded an inhibition at 1 µM of 31.3%.

`N=C(N)N/N=C1\CCCc2[nH]c3ccc(Cl)cc3c21` [Example 152, 2-(6-Chloro-1,2,3,9-tetrahydro-4H-carbazol-4-ylidene)hydrazine-carboximidamide] yielded an inhibition at 1 µM of 99.1%.

In turn, `CCCCCNC(=NC)NN=Cc1c(-c2ccc(Cl)cc2)[nH]c2ccccc12` [Example 124, 2-{[2-(4-chlorophenyl)-1H-indol-3-yl]methylidene}-N′-methyl-N-pentyl-1hydrazinecarboximidamide] came in with an inhibition at 1 µM of 74%.

On to `Clc1ccc(-c2[nH]c3ccccc3c2C=NNC2=NCCCN2)cc1` [Example 45, N-[2-(4-chlorophenyl)-1H-indol-3-ylmethylene]-N′-(1,4,5,6-tetrahydropyrimidin-2-yl)hydrazine], for which 1 µM produced 68.5% inhibition.

Compound `N=C(N)N/N=C/c1c(-c2ccccc2)[nH]c2ccccc12` [Example 42, 2-(2-Phenyl-1H-indol-3-ylmethylene)hydrazinecarboximidamide] had an inhibition at 1 µM of 82.1%.

Compound `CC(=NNC(=N)N)c1c(-c2ccc(Cl)cc2)[nH]c2ccccc12` [Example 64, 2-{1-[2-(4-chloro-phenyl)-1H-indol-3-yl]-ethylidene}hydrazinecarboximidamide] came in with an inhibition at 1 µM of 98.5%.

As for `CN(N=C1CCCc2[nH]c3ccc(F)cc3c21)C1=NCCN1` [Example 158, 6-fluoro-1,2,3,9-tetrahydro-4H-carbazol-4-one 4,5-dihydro-1H-imidazol-2-yl(methyl)hydrazone], the inhibition at 1 µM turned out to be 68.7%.

The compound `CC(=NNC(=N)N)c1cn(C)c2ccc(NS(=O)(=O)c3ccccc3Br)cc12` [Example 25] showed an inhibition at 1 µM of 99%.

In turn, `CC(=NNC(=N)N)c1cn(C)c2ccc(NS(=O)(=O)c3ccc(N)cc3)cc12` [Example 10] registered an inhibition at 1 µM of 98.7%.

On to `CN=C(NCc1ccccc1)NN=Cc1c(-c2ccc(Cl)cc2)[nH]c2ccccc12` [Example 118, 2-{[2-(4-chlorophenyl)-1H-indol-3-yl]methylidene}-N-benzyl-N′-methyl-1hydrazinecarboximidamide], for which the inhibition at 1 µM was 56.2%.

Regarding `CCn1c(-c2ccc(Cl)cc2)c(C=NN(C)C2=NCCN2)c2ccccc21` [Example 104, N-{[2-(4-chloro-phenyl)-1-ethyl-1H-indol-3-yl]-methylene}-N′-(4,5-dihydro-1H-imidazol-2-yl)-N-methylhydrazine], the “% Inhibition” value amounted to 100.0%.

For the compound `CN(N=Cc1c(-c2ccccc2)n(C)c2ccccc12)C1=NCCN1` [Example 90, N-(4,5-dihydro-1H-imidazol-2-yl)-N′-[(1-methyl-2-phenyl-1H-indol-3-yl)-methylene]-N-methylhydrazine], the inhibition at 1 µM turned out to be 99.9%.

With `CC(=NNC(=N)N)c1c(-c2ccc(Cl)cc2)n(CCC#N)c2ccccc12` [Example 107, 2-{1-[2-(4-chloro-phenyl)-1-(2-cyano-ethyl)-1H-indol-3-yl]-ethylidene}hydrazinecarboximidamide], the inhibition at 1 µM is 87.2%.

As to `CN(N=C(c1ccc(Cl)cc1)c1c(-c2ccccc2)[nH]c2ccccc12)C1=NCCN1` [Example 66, N′-[(4-chlorophenyl)-(2-phenyl-1H-indol-3-yl)-methylene]-N-(4,5,-dihydro-1H-imidazol-2-yl)-N-methylhydrazine], the “% Inhibition” value amounted to 18.1%.

`N=C(N)NN=C(Cc1ccccc1)c1c(-c2ccccc2)[nH]c2ccccc12` [Example 59, 2-[2-phenyl-1-(2-phenyl-1H-indol-3-yl)-ethylidene]hydrazinecarboximidamide] returned an inhibition at 1 µM of 24.4%.
